Reference: PubChem BioAssay AID2305 (GlaxoSmithKline (GSK), 2010)

test system: P. falciparum 3D7 growth, pLDH absorbance; assay: blood-stage malaria parasite growth potency – strain 3D7, dose response (AID 2305)

Structure (SMILES)	IC50
O=C1COC2(CN1C1CCN(Cc3ccc(O)c(Cl)c3)C1)c1ccccc1-c1ccccc12 (stereo not given)	960 nM
Cc1cnc(NCCc2ccc(F)cc2)nc1N[C@@H](CC(C)C)C(=O)Nc1ccccc1	970 nM
Cc1nc2ccc3ccc(CNc4ccc(C(=O)N[C@@H](CCC(=O)O)C(=O)N[C@@H](Cc5cccs5)C(=O)O)c(F)c4)cc3c2c(=O)[nH]1	790 nM
CS(=O)(=O)NCCCNCc1ccc(-c2cccc(-c3nc4ccc(F)cc4[nH]3)c2)cc1	800 nM
Oc1ccc(Cc2cc(Oc3c(I)cc(CCc4ncc[nH]4)cc3I)ccc2O)cc1	710 nM
O=C(/C=C/c1ccc([N+](=O)[O-])cc1)N1CCC(NS(=O)(=O)c2ccc(Br)cc2)CC1	1050 nM
Cc1cc2nc(-c3ccc(/C=C/C(=O)NCCCc4ccccc4)cc3)[nH]c2cc1C	960 nM
O=C(C=Cc1ccc(Cl)c(Cl)c1)NCCCCCN1CCC(CCCNC(=O)c2sc3ccccc3c2Cl)CC1	400 nM
COc1ccc2nccc([C@@H](O)CN3[C@@H]4CC[C@H]3CC(NCc3ccc5c(n3)NC(=O)CS5)C4)c2n1 (stereo not given in full)	930 nM
NCc1ccc(CNCc2ccc(-c3ccc(-c4nc5ccc(F)cc5[nH]4)cc3)cc2)cc1	400 nM
CCOC(=O)c1ccc2nc(-c3ccc(C(=O)NC4CCN(Cc5ccccc5)CC4)s3)[nH]c2c1	740 nM
COc1cc(NC(=O)C(c2ccc(Cl)cc2)C(C)C)cc(OC)c1 (stereo not given)	720 nM
CC(=O)c1ccc(N2CCN(C(=O)Nc3ccc(Cl)cc3)CC2)cc1	980 nM
CCN(CC)CCN(Cc1ccc(-c2ccc(C(F)(F)F)cc2)cc1)C(=O)Cn1c(CCc2c(F)cc(F)cc2F)nc(=O)c2ccccc21	1040 nM
CCCCCCN1CCC(CNCc2cccc(Cl)c2)CC1	1220 nM
Cc1[nH]c(C)c(C2CCC(c3ccc(Cl)cc3)CC2)c(=O)c1Cl (stereo not given)	50 nM
O=C(NC1CCN(Cc2ccccc2)C1)c1ccc(Nc2ccc(Br)cc2)nc1 (stereo not given)	1080 nM
Cc1nc(-c2cccc3c(NC(=O)N4CCc5cc6nccc(N7CCN(C)CC7)c6cc54)cccc23)no1	760 nM
COc1c(C2CCN(CCCCNC(=O)c3ccc(C)c(-c4ccc(C(F)(F)F)cc4)c3)CC2)ccc2c1CCCC2	880 nM
COc1ccc2ncc(F)c(CCN3CCC(NCc4cc(F)c5c(c4)OCCO5)CC3)c2n1	350 nM
Cc1cccc(CN2CCC(CNC(=O)c3cc4c(-c5ccccc5F)nn(C)c4s3)CC2)c1	1090 nM
CCOc1ccc2c(NN=Cc3ccc(F)cc3)cc(C)nc2c1	580 nM
CCCc1cc(Cc2cnc(N)nc2N)cc(CCC)c1OCCCC(=O)OCC	50 nM
CS(=O)(=O)Nc1ccc2[nH]cc(C3C[C@H]4CC[C@@H](C3)N4CC3CCC(NC(=O)/C=C/c4ccc(Cl)c(Cl)c4)CC3)c2c1 (stereo not given in full)	870 nM

Structure (SMILES)	IC50
Nc1nc(N)c2cc3ccc(OCc4ccccc4)cc3nc2n1	320 nM
Cc1nc(-c2ccc(-c3ccc(NC(=O)c4coc5ccc(N6C[C@@H](C)N[C@@H](C)C6)cc45)cc3)c(C)c2)no1	930 nM
COc1ccccc1CCNc1nc(C)cc(NCCC(=O)Nc2ccccc2)n1	810 nM
N=C1C=C(N)C(=O)c2ccccc21	1050 nM
CC(=O)Nc1cccc(/C=C/C(=O)N2CCC(N3CCCCC3)CC2)c1	1050 nM
COc1ccc(C(=O)CCC(=O)N(Cc2ccc(-c3ccc(CNCCc4ccc(S(C)(=O)=O)cc4)cn3)cc2)C2C[C@@H]3CC[C@H]2C3)cc1F (stereo not given in full)	930 nM
CN1CCC(NCc2cccc(-c3ccc(S(=O)(=O)NCCc4ccccn4)c(F)c3)c2)CC1	920 nM
O=C(/C=C/c1ccc(Cl)cc1)NCCCCCN1CCCN(C(=O)Nc2ccc(Cl)c(C(F)(F)F)c2)CC1	910 nM
O=C(NCCCCN1CCC(c2ccc(Br)cc2)CC1)c1ccc(NC(=O)c2ccc(Cl)cc2)cc1	710 nM
Cc1ccc(C2CC(c3cccs3)=NN2C(=O)c2ccc(Br)o2)cc1 (stereo not given)	890 nM
Cc1cc(N[C@@H](Cc2ccccc2)C(=O)NC2CCCC2)nc(Nc2ccccc2)n1	830 nM
CCn1ccc2c(N3CCCCS3(=O)=O)cc(C(=O)N[C@@H](Cc3ccccc3)[C@H](O)CNC(C)(C)c3cccc(C(F)(F)F)c3)cc21	130 nM
COc1ccc2nccc(N3CCN(CCNCc4ccc5c(n4)NC(=O)CS5)CC3)c2n1	840 nM
Clc1ccc(CNc2nc(NCCc3cnc[nH]3)nc(Nc3ccc4c(c3)OCO4)n2)cc1	950 nM
Cc1ccccc1C1=CCN(CCCN2c3ccccc3Sc3ccc(Cl)cc32)CC1	870 nM
Cc1[nH]c(C)c(-c2ccc(OCc3cc(F)cc(F)c3)nc2)c(=O)c1Cl	90 nM
CN(C)CCOc1ccnc2ccc(NC(=O)Cc3ccc(-c4ccncc4)c4ccccc34)cc12	280 nM
CCc1ccc(NC(=O)N(CCCn2ccnc2)Cc2csc(-c3ccc(CNCc4ccccc4)cc3)n2)cc1	760 nM
Cn1cc(CN2CCCC(COC(c3ccccc3)c3ccccc3)C2)cn1 (stereo not given)	770 nM
CCc1ccc(C2CCN(CCCCNC(=O)c3ccc(NC(=O)c4ccc(Cl)cc4)cc3)CC2)cc1	650 nM
CCOc1ccc(-c2nonc2NC(=O)CC(C)C)cc1OCC	980 nM
COc1ccc(-c2ccc3c(-c4ccc(F)cc4)cnc(N)c3c2)cn1	390 nM
Cc1nc(-c2nc(NCCc3ccncc3)ncc2-c2ccsc2)sc1C	300 nM
Cc1cccc2[nH]c(-c3cccc(-c4cccc(NC(=O)CNc5ccc(C(N)=O)cc5)c4)c3)nc12	280 nM

Structure (SMILES)	IC50
CN1CCN(CCCN(Cc2csc(-c3ccc(CNCc4ccccc4)cc3)n2)S(=O)(=O)c2cccc3cccnc23)CC1	1410 nM
COc1ccc2nccc([C@@H](O)CN3CCC(CO)(NCc4cc5ccccc5o4)CC3)c2c1	1370 nM
Clc1cc(Cl)cc(Nc2ccnc(Nc3cc(Cl)cc(Cl)c3)n2)c1	670 nM
CN(C)c1ccc(CN2CCC(CNC(=O)c3cc(-c4cccc(F)c4)cs3)C2)cc1 (stereo not given)	1020 nM
COc1ccc2nccc([C@@H](O)CN3CCC(NC(=O)c4ccc(CN5CCN(c6cccc(C)c6)CC5C)cc4)CC3)c2c1 (stereo not given in full)	210 nM
Cc1noc(C)c1-c1cccc(CNCc2ccc(-c3cccc(-c4nc5ccc(F)cc5[nH]4)c3)cc2)c1	550 nM
COc1cccc(C(=O)[C@H]2C[C@@H]2CN2CC=C(c3c[nH]c4cccc(Br)c34)CC2)c1	750 nM
N=C(N)c1ccc(NC(=O)Cc2nc3ccc(C(=N)N)cc3[nH]2)cc1	1370 nM
C=C(F)c1sc(CNCCCNc2nc3ccccc3[nH]2)c(C)c1Br	370 nM
CCCCCCOc1ccccc1C(=O)NCCOc1ccc(Cl)cc1	1210 nM
NC(N)=NN=CC(=O)Nc1ccc(Cl)c(Cl)c1	740 nM
COc1ccc(OC)c(C=CC(=O)NC2CCC(CN3CCC(c4c[nH]c5ccccc45)CC3)CC2)c1 (stereo not given)	650 nM
CC1CN(Cc2csc(Nc3ccccc3)n2)CC(C)O1 (stereo not given)	1020 nM
CCc1c(CCNCCCCCCNCCc2ccc([N+](=O)[O-])cc2)ccc(OC)c1OC	730 nM
CN1CCN(CC(=O)Nc2cccc(-c3ccc(-c4nc5ccc(F)cc5[nH]4)cc3)c2)CC1	700 nM
Cc1cccc2[nH]c(-c3cccc(-c4cccc(CN5CCN(c6ccncc6)CC5)c4)c3)nc12	200 nM
Cc1nc(-c2cccc(NC(C)C(=O)Nc3cc(C(F)(F)F)ccc3N3CCOCC3)c2)cs1 (stereo not given)	240 nM
O=C(NCc1ccc(F)cc1)Nc1cccc(-c2ccc(-c3nc4ccccc4[nH]3)cc2)c1	170 nM
COc1cc(OC)nc(-c2cccc(NC(=O)c3ccc4c(=O)n(CCN5CCCCC5)cnc4c3)c2)n1	740 nM
COC(=O)C(c1ccc(NC(=O)[C@H](CC(C)C)NC(=O)OC(C)(C)C)cc1)c1ccc(NC(=O)[C@H](CC(C)C)NC(=O)OC(C)(C)C)cc1	350 nM
CN1CCN(c2ccc(Nc3ncc(C#N)c(Nc4ccccc4C(N)=O)n3)cc2)CC1	40 nM
COc1cccc(-c2nn(C)c3sc(C(=O)Nc4cccnc4)cc23)c1	950 nM
N#Cc1ccc(S(=O)(=O)N2C(c3cccc([N+](=O)[O-])c3)C(C(=O)c3ccccc3)N(C3CCCCC3)C2c2cccc([N+](=O)[O-])c2)cc1 (stereo not given)	1080 nM
CC(C)COc1ccc(Cl)cc1Cc1nc(-c2nc3ccc(CN(C)C)cc3[nH]2)co1	710 nM

Structure (SMILES)	IC50
CCNC(=O)Nc1ccc(N(C)c2ccnc(Nc3ccc(CS(C)(=O)=O)cc3)n2)cc1	90 nM
CCOc1ccc2c(NN=Cc3cccc(F)c3)cc(C)nc2c1	710 nM
O=C(NC1CCN(Cc2ccccc2O)C1)c1cccc(C(F)(F)F)c1 (stereo not given)	730 nM
Nc1c(Cl)cc(C(O)CNCCCCCOCCc2ccc3occc3c2)cc1Cl (stereo not given)	690 nM
N#Cc1ccc(N2CCN(Cc3ccc(-c4cccc(-c5nc6ccccc6[nH]5)c4)cc3)CC2)nc1	910 nM
Cc1cccc2[nH]c(-c3cccc(-c4cccc(NC(=O)c5cnc[nH]5)c4)c3)nc12	260 nM
CCCCCCN1CCN(Cc2cccc(NC(=O)c3ccc(Cl)c(Cl)c3)c2)CC1	610 nM
O=C(NCCCN1CCN(c2cccc(Cl)c2)CC1)c1ccc(-c2nc3cc(Cl)c(Cl)cc3[nH]2)cc1	700 nM
CC(C)CCN1CCC(Oc2ccc(NC(=O)c3cccs3)cc2Cl)C1 (stereo not given)	1100 nM
COc1ccc(NC(=O)C=Cc2ccc(Oc3ccccc3Cl)c([N+](=O)[O-])c2)cc1OCCN(C(C)C)C(C)C	880 nM
CN(C)c1ccc(CN2CCC(NC(=O)c3ccc(-c4cccc(Cl)c4)s3)CC2)cc1	920 nM
CC(=O)c1ccc(N2C(=O)C3C(Cc4ccc(OC(C)(C)C)cc4)NC4(C(=O)N(Cc5ccc(C(C)(C)C)cc5)c5ccccc54)C3C2=O)cc1 (stereo not given)	1280 nM
CCNc1cc(C(=O)N[C@@H](Cc2ccccc2)[C@H](O)CNCc2cccc(OC)c2C)cc(N2CCCCS2(=O)=O)c1	520 nM
Cc1[nH]c(C)c(-c2ccc(-c3ccc(OC(F)(F)F)cc3)cc2)c(=O)c1Cl	40 nM
Fc1ccc2c(NN=CC=Cc3ccccc3)ccnc2c1	780 nM
Oc1ccc(CCNc2nc(N/N=C/c3ccc(Cl)cc3)nc(N3CCNCC3)n2)cc1	580 nM
CC1(C)N=C(N)N=C(N)N1OCC1COc2ccccc2O1 (stereo not given)	30 nM
O=S(=O)(Nc1ccc(CCN2CCC(N3CCCCC3)CC2)cc1)c1ccc(Cl)cc1	1090 nM
O=C(Nc1cccc(OC2CCN(Cc3ccccc3)CC2)c1)c1ccc(Cl)c(Cl)c1	720 nM
COc1ccc2c(c1)S(=O)(=O)N=C(N1CCCC1c1ccc(Cl)c(Cl)c1)N2C (stereo not given)	1280 nM
COc1ccc2nccc([C@@H](O)CN3CCC(NCCOc4ccccc4C#N)CC3)c2c1	400 nM
COCCNCc1ncsc1-c1ccc2c(Nc3cc(O)ccc3C)ccnc2c1	700 nM
O=C(NCCCCN1CCC(c2c[nH]c3ccccc23)CC1)c1ccc(-c2ccc(C(F)(F)F)cc2)cc1	800 nM
